Where no end group is shown, it is not given here.
Assays:
[1] = system: Xylella fastidiosa 3A2 (Xf)
[2] = system: Liberibacter crescens BT-1 (Lc)
[3] = system: Xanthomonas arboricola 417 (Xa)

| Sequence | Minimum Inhibitory Concentration [1] | Minimum Inhibitory Concentration [2] | Minimum Inhibitory Concentration [3] |
| --- | --- | --- | --- |
| KWKVFKKIEKMGRNIRNGIVKAGPAIAVLGEAKAL [CECB, Cecropin B, reference compound] | 100 25 µM | 100 µM |  |
| TAYGIMARQPNSRKSFIDSSIRLAR [CHITI25] | 100 150 µM | >300 µM | 100 150 µM |
| TIWKGVPKFLRRVDTALKNI [PPC20] | 150 50 µM | 200 µM |  |
| TLDELELFTDAVERW [ISS15] | >300 >300 µM | >300 µM | >300 >300 µM |
| WKVFKKIEKMGRNIRNGIVKA [CBNT21, reference compound] | 200 25 µM | 200 µM |  |
